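Five concentrations, 48 hours, 96-well plates. GI50 is the concentration that inhibits growth by half.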 Active and inactive are the calls of the source. No stated cut-off is given here; in the data, active = GI50 up to about 1.1 µM and inactive = higher.
How the values were obtained:
Assay in all cases: growth of human tumour cells (NCI), 48 h
786-0 = test system: 786-0
A498 = test system: A498
A549 = test system: A549
ACHN = test system: ACHN
BT-549 = test system: BT-549
CAKI-1 = test system: CAKI-1
DU-145 = test system: DU-145
EKVX = test system: EKVX
HCC 2998 = test system: HCC 2998
HCT-116 = test system: HCT-116
HCT-15 = test system: HCT-15
HOP-62 = test system: HOP-62
HOP-92 = test system: HOP-92
HT-29 = test system: HT-29
IGROV-1 = test system: IGROV-1
K562 = test system: K562
KM12 = test system: KM12
LOX IMVI = test system: LOX IMVI
M14 = test system: M14
MCF7 = test system: MCF7
MDA-MB-231 = test system: MDA-MB-231
MDA-MB-435 = test system: MDA-MB-435
MDA-N = test system: MDA-N
MOLT-4 = test system: MOLT-4
NCI-H226 = test system: NCI-H226
NCI-H23 = test system: NCI-H23
NCI-H460 = test system: NCI-H460
NCI/ADR-RES = test system: NCI/ADR-RES
OVCAR-3 = test system: OVCAR-3
OVCAR-4 = test system: OVCAR-4
OVCAR-5 = test system: OVCAR-5
OVCAR-8 = test system: OVCAR-8
PC-3 = test system: PC-3
SF-295 = test system: SF-295
SF-539 = test system: SF-539
SK-MEL-28 = test system: SK-MEL-28
SK-MEL-2 = test system: SK-MEL-2
SK-OV-3 = test system: SK-OV-3
SN12C = test system: SN12C
SNB-19 = test system: SNB-19
SNB-75 = test system: SNB-75
SR = test system: SR
SW-620 = test system: SW-620
T47D = test system: T47D
U-251 = test system: U-251
UACC-257 = test system: UACC-257
UACC-62 = test system: UACC-62
UO-31 = test system: UO-31
CCRF-CEM = test system: CCRF-CEM
COLO 205 = test system: COLO 205
HL-60 = test system: HL-60
Malme-3M = test system: Malme-3M
NCI-H522 = test system: NCI-H522
RPMI-8226 = test system: RPMI-8226
RXF 393 = test system: RXF 393
SF-268 = test system: SF-268
SK-MEL-5 = test system: SK-MEL-5
TK-10 = test system: TK-10
Hs-578T = test system: Hs-578T

Measured: GI50

C=C[C@@]1(C)CC(=O)[C@]2(O)[C@@]3(C)[C@@H](OC(C)=O)CCC(C)(C)[C@@H]3[C@H](OC(C)=O)[C@H](OC(C)=O)[C@@]2(C)O1
> 100 µM: HCT-15
inactive: 786-0 > 100 µM | A498 > 100 µM | A549 > 100 µM | ACHN > 100 µM | BT-549 > 100 µM | CAKI-1 > 100 µM | DU-145 > 100 µM | EKVX > 100 µM | HCC 2998 > 100 µM | HCT-116 > 100 µM | HOP-62 > 100 µM | HOP-92 > 100 µM | HT-29 > 100 µM | IGROV-1 56.6 µM | K562 > 100 µM | KM12 36.1 µM | LOX IMVI > 100 µM | M14 > 100 µM | MCF7 > 100 µM | MDA-MB-231 > 100 µM | MDA-MB-435 > 100 µM | MDA-N > 100 µM | MOLT-4 51.4 µM | NCI-H226 > 100 µM | NCI-H23 > 100 µM | NCI-H460 > 100 µM | NCI/ADR-RES > 100 µM | OVCAR-3 > 100 µM | OVCAR-4 > 100 µM | OVCAR-5 > 100 µM | OVCAR-8 > 100 µM | PC-3 > 100 µM | SF-295 > 100 µM | SF-539 > 100 µM | SK-MEL-28 > 100 µM | SK-MEL-2 > 100 µM | SK-OV-3 > 100 µM | SN12C > 100 µM | SNB-19 > 100 µM | SNB-75 > 100 µM | SR > 100 µM | SW-620 > 100 µM | T47D > 100 µM | U-251 > 100 µM | UACC-257 > 100 µM | UACC-62 > 100 µM | UO-31 > 100 µM

BrC1=C(Br)C2(SCCS2)[C@H]2C[C@@H]1c1ccccc12
17.8 µM: HCT-15
inactive: 786-0 58.3 µM | A498 > 100 µM | A549 > 54.1 µM | ACHN > 44 µM | BT-549 38.4 µM | CAKI-1 > 91.2 µM | CCRF-CEM 14.6 µM | COLO 205 29.4 µM | DU-145 47.3 µM | EKVX 36.9 µM | HCC 2998 21.3 µM | HCT-116 13.1 µM | HL-60 20.9 µM | HOP-62 > 100 µM | HOP-92 > 59.2 µM | HT-29 10.2 µM | IGROV-1 55 µM | K562 9.12 µM | KM12 11.6 µM | LOX IMVI 43.7 µM | M14 > 79.8 µM | MCF7 22.3 µM | MDA-MB-231 60.8 µM | MDA-MB-435 4.4 µM | MDA-N 4.07 µM | MOLT-4 13.9 µM | Malme-3M 32.1 µM | NCI-H226 64.1 µM | NCI-H23 33.9 µM | NCI-H460 33.5 µM | NCI-H522 13.2 µM | NCI/ADR-RES 61.5 µM | OVCAR-3 > 100 µM | OVCAR-4 29.9 µM | OVCAR-5 > 100 µM | OVCAR-8 > 100 µM | PC-3 95.5 µM | RPMI-8226 13.9 µM | RXF 393 > 31.2 µM | SF-268 63.7 µM | SF-295 > 100 µM | SF-539 41.3 µM | SK-MEL-28 97.9 µM | SK-MEL-2 41.2 µM | SK-MEL-5 9.38 µM | SK-OV-3 > 46 µM | SN12C > 91.2 µM | SNB-19 > 100 µM | SNB-75 16.2 µM | SR 9.4 µM | SW-620 35.3 µM | T47D 24.6 µM | TK-10 > 100 µM | U-251 37.8 µM | UACC-257 52.6 µM | UACC-62 65.8 µM | UO-31 29.4 µM

COc1ccc(N[C@H](CSc2ccc(C)cc2)c2ccc(F)cc2)cc1
inactive: 786-0 > 100 µM | A549 74.6 µM | ACHN > 100 µM | BT-549 > 100 µM | CAKI-1 > 100 µM | CCRF-CEM > 100 µM | COLO 205 > 100 µM | DU-145 > 100 µM | EKVX > 100 µM | HCC 2998 > 100 µM | HCT-116 45.8 µM | HOP-62 > 100 µM | HT-29 > 100 µM | IGROV-1 > 100 µM | K562 52 µM | KM12 > 100 µM | LOX IMVI 29.4 µM | M14 > 100 µM | MCF7 61.8 µM | MDA-MB-231 > 100 µM | MDA-MB-435 > 100 µM | MDA-N 71.1 µM | MOLT-4 3.23 µM | NCI-H23 39.3 µM | NCI-H460 > 100 µM | NCI-H522 38.9 µM | NCI/ADR-RES > 100 µM | OVCAR-3 > 100 µM | OVCAR-4 67.5 µM | OVCAR-5 > 100 µM | OVCAR-8 > 100 µM | PC-3 > 100 µM | RPMI-8226 23.9 µM | RXF 393 68.5 µM | SF-268 > 100 µM | SF-295 > 100 µM | SF-539 > 100 µM | SK-MEL-28 > 100 µM | SK-MEL-2 > 100 µM | SK-MEL-5 57.3 µM | SK-OV-3 > 100 µM | SN12C > 100 µM | SNB-19 > 100 µM | SNB-75 > 100 µM | SR 25.2 µM | SW-620 > 100 µM | T47D 24.6 µM | TK-10 > 100 µM | U-251 > 100 µM | UACC-257 40 µM | UACC-62 65.8 µM | UO-31 > 100 µM
65.5 µM: HCT-15

C1CCCCC2(CCCCCCCCC3(CCC1)SCCS3)SCCS2
> 100 µM: HCT-15
inactive: 786-0 > 100 µM | A498 > 100 µM | A549 > 100 µM | ACHN > 100 µM | CAKI-1 > 100 µM | COLO 205 > 100 µM | DU-145 > 100 µM | EKVX > 100 µM | HCC 2998 > 100 µM | HCT-116 > 100 µM | HL-60 > 100 µM | HOP-62 > 100 µM | HOP-92 > 100 µM | HT-29 > 100 µM | Hs-578T > 100 µM | IGROV-1 > 100 µM | K562 > 100 µM | KM12 > 100 µM | LOX IMVI > 100 µM | M14 > 100 µM | MCF7 > 100 µM | MDA-MB-435 > 100 µM | MDA-N > 100 µM | Malme-3M > 100 µM | NCI-H226 > 100 µM | NCI-H23 > 100 µM | NCI-H460 > 100 µM | NCI-H522 > 100 µM | NCI/ADR-RES > 100 µM | OVCAR-3 > 100 µM | OVCAR-4 > 100 µM | OVCAR-5 > 100 µM | OVCAR-8 > 100 µM | PC-3 > 100 µM | SF-268 > 100 µM | SF-295 > 100 µM | SF-539 > 100 µM | SK-MEL-28 > 100 µM | SK-MEL-2 > 100 µM | SK-MEL-5 > 100 µM | SK-OV-3 > 100 µM | SN12C > 100 µM | SNB-19 > 100 µM | SNB-75 > 100 µM | SR > 100 µM | SW-620 > 100 µM | T47D > 100 µM | TK-10 > 100 µM | U-251 > 100 µM | UACC-257 > 100 µM | UACC-62 > 100 µM

From ChEMBL document CHEMBL1201862, “PubChem BioAssay data set” (2004)
